Publication PMC7113582, “Peptide Self-Assembly Is Linked to Antibacterial, but Not Antifungal, Activity of Histatin 5 Derivatives” (mSphere, 2020)

What was measured:
[1] = tested on: Candida albicans (SC5341); experiment: FITC uptake assay (membrane permeabilization); type: cell-based; conditions: C. albicans 2 × 10^7 cells per ml, 10 mM sodium phosphate buffer pH 7.4, 250 μg/ml peptide, 6 h at 30°C; no-peptide control 1%
Procedure: This assay was adapted from a previously reported method ([53]). Candida albicans (SC5341) cells were suspended (2 × 10^7 cells per ml) in 10 mM sodium phosphate buffer (pH 7.4) and treated with each of the peptides for 6 h at 30°C. Samples were then incubated with 6 μg/ml FITC (the stock solution is 10 mg/ml in acetone) plus 10 mM sodium phosphate buffer at 30°C for 30 min. A 10-μl volume of each sample was plated on an individual glass slide, and the slides were then washed with 10 mM sodium phosphate buffer thrice and examined using an Eclipse E600 fluorescence microscope (Nikon, Japan). The results presented are representative of three independent experiments.

S. epidermidis = experiment: Bacterial kinetic growth inhibition analysis, S. epidermidis; type: cell-based, Staphylococcus epidermidis
[2] = Self-assembly observed by transmission electron microscopy; type: physicochemical; conditions: 1 mg/ml in water, heated 50 min at 90°C, cooled gradually to 25°C overnight; negative stain TEM
Procedure: Lyophilized powders of each of the peptides (Genscript Biotech, USA) were dissolved in ultrapure water (BioInd, Israel) to a concentration of 1 mg/ml and heated for 50 min at 90°C, allowing the peptides to reach the monomeric state, and were then allowed to cool gradually to 25°C overnight. This treatment facilitated the self-assembly and nanostructure formation of L7F but not dhvar2.
TEM imaging was performed by applying 10-μl samples to 400-mesh copper grids covered by a carbon-stabilized Formvar film (SPI, West Chester, PA, USA). The samples were allowed to adsorb for 2 min before excess fluid was blotted off. Negative staining was then achieved by depositing 10 μl of 2% uranyl acetate on the grid for 2 min before blotting off excess fluid. Micrographs were obtained using a Tecnai 12 electron microscope (FEI, Tokyo, Japan) operating at 120 kV.

[3] = tested on: E. coli bacteria (ATCC 25922); experiment: Bacterial kinetic growth inhibition analysis, E. coli; type: cell-based, Escherichia coli
Procedure: Each of the peptides was diluted by serial 2-fold dilutions in M9 minimal media in Corning (3879) 96-well plates (Sigma-Aldrich, Israel). E. coli bacteria (ATCC 25922) were grown overnight in M9 minimal media and diluted 1,000-fold in M9 media and grown for 5 h at 37°C. In Corning (3596) 96-well plates, 75-μl volumes of the serial 2-fold dilutions of each test compound were added to 75 μl of growth medium containing bacteria (5 × 10̂^6 CFU/ml). Bacteria and test compounds were incubated overnight at 37°C, and kinetic growth inhibition was determined by measurements of optical density at 600 nm using a Biotek Synergy HT microplate reader.

[4] = Lipid/PDA vesicle fluorescent chromatic response, DOPC-containing model membrane; conditions: DOPC/DMPG/ErgS/PDA SUVs; peptide 1 mg/ml stock, Tris-base buffer pH 8.0, 27°C, %FCR
Procedure: (§1) Vesicles containing the diacetylene monomer 10,12-tricosadiynoic acid (TRCDA) and the lipid and ergosterol components DOPC/DMPG/ErgS/PDA and DOPE/DMPG/ErgS/PDA (1:0.6:0.4:3) were dissolved in chloroform/ethanol (1:1) and dried together in vacuo to reach a constant weight, followed by addition of deionized water to reach a final concentration of 1 mM, and were subsequently subjected to probe sonication at 40 W at 70°C for 3 min. The vesicle solution was subsequently cooled at room temperature and kept at 4°C overnight. The solution was then irradiated at 254 nm for 30s, resulting in intense blue color appearance due to polymerization of the diacethylene units.
(§2) Fluorescence was measured on a Fluscan Ascent microplate reader using a 96-well microplate (Grainer), excitation at 485 nm and emission at 555 nm, and long-pass (LP) filters with normal slits. The background fluorescence from the vesicles alone was negligible. Samples were prepared for fluorescence measurements by adding 30 μl of each of the peptides at 1 mg/ml to 30 μl of lipid/PDA vesicles followed by addition of 30 μl 50 mM Tris-base buffer (pH = 8.0). The samples were incubated at 27°C during the measurements. […]

[5] = Lipid/PDA vesicle fluorescent chromatic response, DOPE-containing model membrane; conditions: DOPE/DMPG/ErgS/PDA SUVs; peptide 1 mg/ml stock, Tris-base buffer pH 8.0, 27°C, %FCR
Procedure: as §1, §2

[6] = kinetic growth inhibition, OD600

Sequence: KRLFKEFLFSLRKY [L7F, single-amino-acid mutation L7F of dhvar2 (…), self-assembling derivative]
- FITC positive fluorescence (membrane permeabilization) [1]: 95%
- antibacterial activity, fold more active than dhvar2 (S. epidermidis; [6]): 2 fold
- peptide concentration that completely inhibited growth (S. epidermidis; serial 2-fold dilutions, OD600, representative of three experiments): 250 µg/mL
- self-assembly / morphology of assemblies (TEM) [2]: long, unbranched nanoassemblies
- antibacterial activity, fold more active than dhvar2 [3, 6]: 4 fold
- peptide concentration that completely inhibited growth ([3]; serial 2-fold dilutions, 37°C, OD600, representative of three experiments): 125 µg/mL

Sequence: KRLFKELLFSLRKY [dhvar2, well-characterized histatin 5 derivative, …, reference compound]
- colorimetric response, fold lower than that to L7F [4]: 2 fold
- FITC positive fluorescence (membrane permeabilization) [1]: 95%
- self-assembly / morphology of assemblies (TEM) [2]: no ordered assemblies
- fluorescent chromatic response, fold lower than that to L7F [5]: 2 fold
